Experimental data: US8008258B2, “Cop 1 for treatment of inflammatory bowel diseases” (Yeda Research and Development Co. Ltd., priority 2003, dated 2011)

Assays:
[1] = tested on: mesenteric lymph nodes (MLN) cells; test: Lymphocyte proliferation (thymidine incorporation) in response to colonic extract, cells from colitis-induced mice; assay type: cell-based
Protocol: FIGS. 4A-4F show the effect of GA on the lymphocyte proliferation in different mouse strains. The responses of normal mice, colitis-induced mice, and colitis-induced mice treated with GA orally or parenterally daily are compared in the BALB/c (FIGS. 4A, 4B), (SJL/JxBALB/c)F1 (FIGS. 4C, 4D), and SJL/J (FIGS. 4E, 4F) strains. Cells from spleens (FIGS. 4A, 4C, 4E) and mesenteric lymph nodes (MLN) (FIGS. 4B, 4D, 4F) were cultured, 7 days after disease induction, with no antigen, colonic extract (CE, 200 μg/ml), or GA (50 μg/ml). Results of thymidine incorporation are expressed as mean cpm±ISD of six culture wells and represent one of two similar experiments, using pooled cells from 3-5 mice in each group. # Indicates significant increase in the response to CE by colitic mice. * Indicates significant decrease in the response to CE induced by GA treatment.
Colon extract. Colons of syngeneic normal mice were cut into small strips and homogenized. The homogenate was diluted in PBS and passed through glass wool. Protein quantity was measured by using a protein assay kit (Bio-Rad, Richmond, Calif.).
Reactivity assays. Spleens and mesenteric lymph nodes (MLN) cells (0.5×10^6 cell/well) were cultured with either GA (50 μg/ml), colon extract (200 μg/ml), immobilized anti-CD3 (5 μg/ml), or PBS control, in a final volume of 250 μl/well (6 wells for each antigen). For proliferation assay, cells were cultured in RPMI 1640 with 10% FCS, pulsed with 1 μCi of [3H] thymidine after 48 h incubation, and harvested 12 h later. For cytokine (TNF-α and TGF-β) assay, cells were cultured in serum-free medium (DCCM-1), supernatants were collected after 72 h, and tested for the cytokines by ELISA using mAbs pairs (R&D Systems, Minneapollis, Minn.) according to the manufacturer's instruction.

[2] = tested on: DSS-induced colitis; test: Dextran sulfate sodium (DSS)-induced colitis in C57BL/6 mice; assay type: in vivo; settings: GA 2.5 mg/day SC daily, by day 7 after DSS feeding, preliminary experiment
Protocol: Feeding mice for several days with dextran sulfate sodium (DSS) polymers in the drinking water induces an acute colitis with bloody diarrhea, histological damage, and inflammation (Wirtz and Neurath, 2000).
Female C57BL/6, 7 weeks old mice, were fed with 2.5% DSS solution in the drinking water for 7 days. GA was administered subcutaneously by daily injections—2.5 mg/day, in PBS, starting either 7 days before or in the same day of DSS feeding.

With glatiramer acetate [GA] the “Inhibition of the MLN proliferation response to colonic extract by GA treatment” value ([1]; MLN from (SJL/JxBALB/c)F1 mice treated either orally or parenterally with GA) was “complete inhibition”, the “Inhibition of the local MLN proliferation response to colonic extract by GA treatment” value ([1]; MLN from BALB/c, colonic extract 200 μg/ml, 7 days after disease induction) was 66% and the “Inhibition of the MLN proliferation response to colonic extract by GA treatment” value ([1]; MLN from SJL/J mice treated either orally or parenterally with GA) was “complete inhibition”. The Maximum weight loss ([2]; injected from day 0) was 4% and the Maximum weight loss ([2]; injected from day −7) was 7%.
